Reference: patent publication US11306051B2, “Use of vanillin derivatives as a preservative, preservation method, compounds, and composition” (L'OREAL, priority 2009, dated 2022)

How the values were obtained:
Assay type in all cases: cell-based
[1] = tested on: Enterococcus faecalis (Ef) ATCC 33186; test: Challenge Test (artificial contamination) of cosmetic formula, E. faecalis; conditions: 2% compound in cosmetic formula; inoculation about 10^6 cfu/gram; 7 days contact at 22° C.±2° C. in darkness; <200 cfu = sensitivity threshold
Protocol: (§1) The antimicrobial efficacy of a compound of formula (I) was evaluated via the Challenge Test or artificial contamination method. The method of the challenge test consists of an artificial contamination of the sample with collection microbial strains (bacteria, yeasts and moulds) and evaluation of the number of revivable microorganisms seven days after the inoculation. […] [table] […] After 7 days of contact time between the microorganisms and the product at 22° C.±2° C. and in darkness, decimal dilutions are performed and the number of revivable microorganisms remaining in the product is counted.

[2] = tested on: Escherichia coli (Ec) ATCC 8739; test: Challenge Test (artificial contamination) of cosmetic formula, E. coli; conditions: 2% compound in cosmetic formula; inoculation about 10^6 cfu/gram; 7 days contact at 22° C.±2° C. in darkness; <200 cfu = sensitivity threshold
Protocol: as §1

[3] = tested on: Pseudomonas aeruginosa (Pa) ATCC 19429; test: Challenge Test (artificial contamination) of cosmetic formula, P. aeruginosa; conditions: 2% compound in cosmetic formula; inoculation about 10^6 cfu/gram; 7 days contact at 22° C.±2° C. in darkness; <200 cfu = sensitivity threshold
Protocol: as §1

[4] = tested on: Candida albicans (Ca) ATCC 10231; test: Challenge Test (artificial contamination) of cosmetic formula, C. albicans; conditions: 2% compound in cosmetic formula; inoculation about 10^6 cfu/gram; 7 days contact at 22° C.±2° C. in darkness; <200 cfu = sensitivity threshold
Protocol: as §1

[5] = tested on: Aspergillus niger (An) ATCC 6275; test: Challenge Test (artificial contamination) of cosmetic formula, A. niger; conditions: 2% compound in cosmetic formula; inoculation about 10^6 cfu/gram; 7 days contact at 22° C.±2° C. in darkness
Protocol: The antimicrobial efficacy of a compound of formula (I) was evaluated via the Challenge Test or artificial contamination method. The method of the challenge test consists of an artificial contamination of the sample with collection microbial strains (bacteria, yeasts and moulds) and evaluation of the number of revivable microorganisms seven days after the inoculation. […] [table] The gram-negative bacteria (Escherichia coli and Pseudomonas aeruginosa), gram-positive bacteria (Enterococcus faecalis), yeast (Candida albicans) and mould (Aspergillus niger) are seeded in the subculturing medium, respectively, the day before the inoculation for the bacteria and the yeast, and five days before the inoculation for the mould. for the mould, the spores are collected by washing the agar with 6 to 7 ml of harvesting solution and the suspension is recovered in a sterile tube or flask. After homogenizing the microbial suspension, 0.2 ml of inoculum is introduced into each pill bottle (the suspensions are used pure: between 1×10^8 and 3×10^8 cfu per ml) and the microbial suspension in the 20 g of product (=cosmetic formula) is homogenized thoroughly using a spatula. […] After 7 days of contact time between the microorganisms and the product at 22° C.±2° C. and in darkness, decimal dilutions are performed and the number of revivable microorganisms remaining in the product is counted.

For CCOc1cc(CCC(C)=O)ccc1O [Compound], the “No. of cfu/gram of product at T7 days, E. faecalis” value [1] was <200 cfu/gram of product, the “No. of cfu/gram of product at T7 days, E. coli” value [2] was <200 cfu/gram of product and the “No. of cfu/gram of product at T7 days, P. aeruginosa” value [3] was <200 cfu/gram of product. For the same compound, the “No. of cfu/gram of product at T7 days, C. albicans” value [4] was <200 cfu/gram of product and the “No. of cfu/gram of product at T7 days, A. niger” value [5] was 3.4 × 10^5 cfu/gram of product.
